Reference: ChEMBL document CHEMBL5728379, “Pyrido five-element aromatic ring compound, preparation method therefor and use thereof” (2021)

Experiment: Enzyme-Linked Immunosorbent Assay: EZH2 wild type: Experimental method: avdin of a final concentration of 100 nM was used to coat 96-well plate at 10 μL/well, placed in a wet box and shaken overnight, and then 100 μL 3% BSA per well was added and blocked for 1 h at room temperature. PRC2 complex (EZH2/EED/SUZ12/RbAp48/AEBP2), H3 (21-44) me0 substrate, methyl donor SAM and compound were added into each well of the blocked 96-well plate. The total reaction system was 100 μL, placed in a wet box and allowed to react for 1 h on shaker at room temperature. The plate was washed with TBS-T [20 mM Tris-HCl (pH 7.2-7.4, room temperature), 150 mM NaCl, 0.1% (v/v) Tween-20] for 3 times, blocked with 3% BSA for 10 min, and anti-H3K27me3 antibody was added and incubated for 1 h in a wet box on shaker at room temperature. The plate was washed again with TBS-T for 3 times, and blocked with 3% BSA per well for 10 min. Horseradish peroxidase-labeled secondary antibody was added and reacted in a wet box at room temperature for 1 h, and finally, washed with TBS-T for 3 times. 2 mg/ml OPD color developing solution (1004/well) was added for coloring, and the reaction was stopped with 2M H2SO4 (50 μL/well). The plate was read by a plate reader at 490 nm and IC50 of the compound was calculated using SoftMax Pro 5.4.1 software.

IC50: < 100 nM
Structure (SMILES): Cc1cc(C)c(CNC(=O)c2cc3cccn3c(C(C)OCc3ccnn3C)c2C)c(=O)[nH]1 (stereo unspecified)
